Measurements from patent US20260062412A1, “NITROGEN-CONTAINING HETEROCYCLIC COMPOUND HAVING MYT1 INHIBITORY ACTIVITY” (CHUGAI SEIYAKU KABUSHIKI KAISHA, priority 2023, published 2026).

biological target: MYT1 protein (Homo sapiens (Human), UniProt Q99640); assay: Test for binding to ATP binding site of MYT1 (Kinase Tracer 178 / Eu-Anti-GST antibody TR-FRET); conditions: ATP binding site of MYT1, 30 minutes at room temperature
Procedure: The binding capacity of each compound to the ATP binding site of MYT1 Kinase protein was evaluated. 5× Kinase Buffer A (manufactured by Thermo Fisher Scientific Inc., PV3189) was diluted to 5 times with Milli-Q water, thereby preparing 1× Kinase Buffer. Using 1× Kinase Buffer, MYT1 protein (manufactured by Carna Biosciences, Inc.) was diluted to a concentration of 0.005 μM and Eu-Anti-GST Antibody was diluted to a concentration of 1 μM. […] To a 96 well-plate, 2.5 μL of a compound diluted with DMSO was added. […] The mixture was well mixed and then allowed to stand at room temperature for 30 minutes. Thereafter, fluorescence wavelengths of 665 nm and 615 nm generated by irradiation with excitation light of 340 nm were detected using Envision (manufactured by PerkinElmer). The proportion of Tracer bound to MYT1 protein was calculated for every condition by dividing the intensity at the fluorescence wavelength of 665 nm by the intensity at the fluorescence wavelength of 615 nm.

Chain of MYT1 protein (Q99640 whole entry): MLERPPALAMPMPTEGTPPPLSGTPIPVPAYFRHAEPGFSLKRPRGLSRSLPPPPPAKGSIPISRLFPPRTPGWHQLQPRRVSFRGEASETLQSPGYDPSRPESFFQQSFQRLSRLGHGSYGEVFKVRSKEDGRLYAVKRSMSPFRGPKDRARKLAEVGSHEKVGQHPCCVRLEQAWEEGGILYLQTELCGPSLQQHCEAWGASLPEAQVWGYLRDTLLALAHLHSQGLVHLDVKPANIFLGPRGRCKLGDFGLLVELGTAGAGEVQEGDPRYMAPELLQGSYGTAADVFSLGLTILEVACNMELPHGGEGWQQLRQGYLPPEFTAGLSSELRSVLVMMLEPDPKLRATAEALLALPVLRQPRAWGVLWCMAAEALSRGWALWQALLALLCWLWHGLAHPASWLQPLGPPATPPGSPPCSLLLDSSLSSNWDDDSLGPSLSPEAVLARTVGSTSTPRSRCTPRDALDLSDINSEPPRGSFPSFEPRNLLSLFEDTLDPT

Compound | IC50
Nc1c(-c2ccc(Cl)c3[nH]ncc23)c2cc(C(=O)N3CCOCC3)ccc2[nH]c1=O [Compound A38, 3-Amino-4-(7-chloro-1H-indazol-4-yl)-6-(morpholine-4-carbonyl)-1H-quinolin-2-one] | 20 nM
CN1CC(c2ccc3[nH]c(=O)c(N)c(-c4ccc(Cl)c5[nH]ncc45)c3c2)C1 [Compound A39, 3-Amino-4-(7-chloro-1H-indazol-4-yl)-6-(1-methylazetidin-3-yl)-1H-quinolin-2-one] | 23 nM
Nc1c(-c2ccc(Cl)c3[nH]ncc23)c2ccc(Cl)cc2[nH]c1=O [Compound A40, 3-Amino-7-chloro-4-(7-chloro-1H-indazol-4-yl)-1H-quinolin-2-one] | 8.6 nM
COc1cccc(-c2c(N)c(=O)[nH]c3ccc(Cl)cc23)c1 [Compound A42, 3-Amino-6-chloro-4-(3-methoxyphenyl)-1H-quinolin-2-one] | 450 nM
Nc1c(-c2cccc3[nH]ncc23)c2cc(Cl)ccc2[nH]c1=O [Compound A43, 3-Amino-6-chloro-4-(1H-indazol-4-yl)-1H-quinolin-2-one] | 48 nM
Nc1c(-c2ccncc2)c2cc(Cl)ccc2[nH]c1=O [Compound A44, 3-Amino-6-chloro-4-pyridin-4-yl-1H-quinolin-2-one] | 5000 nM
Nc1c(-c2cccnc2)c2cc(Cl)ccc2[nH]c1=O [Compound A45, 3-Amino-6-chloro-4-pyridin-3-yl-1H-quinolin-2-one] | 5000 nM
CS(=O)(=O)Nc1cccc(-c2c(N)c(=O)[nH]c3ccc(Cl)cc23)c1 [Compound A46, N-[3-(3-amino-6-chloro-2-oxo-1H-quinolin-4-yl)phenyl]methanesulfonamide] | 5900 nM
Nc1cc(-c2c(N)c(=O)[nH]c3ccc(Cl)cc23)ccn1 [Compound A47, 3-Amino-4-(2-aminopyridin-4-yl)-6-chloro-1H-quinolin-2-one] | 3300 nM
Nc1c(-c2ccc3nc[nH]c3c2)c2cc(Cl)ccc2[nH]c1=O [Compound A48, 3-Amino-4-(3H-benzimidazol-5-yl)-6-chloro-1H-quinolin-2-one] | 5300 nM
Nc1c(-c2ccc3cn[nH]c3c2)c2cc(Cl)ccc2[nH]c1=O [Compound A49, 3-Amino-6-chloro-4-(1H-indazol-6-yl)-1H-quinolin-2-one] | 790 nM
Nc1c(-c2cccc(OC(F)F)c2)c2cc(Cl)ccc2[nH]c1=O [Compound A50, 3-Amino-6-chloro-4-[3-(difluoromethoxy)phenyl]-1H-quinolin-2-one] | 5800 nM
Nc1c(-c2cccc(C(F)F)c2)c2cc(Cl)ccc2[nH]c1=O [Compound A51, 3-Amino-6-chloro-4-[3-(difluoromethyl)phenyl]-1H-quinolin-2-one] | 2700 nM
Cn1ccc(-c2c(N)c(=O)[nH]c3ccc(Cl)cc23)cc1=O [Compound A52, 3-Amino-6-chloro-4-(1-methyl-2-oxopyridin-4-yl)-1H-quinolin-2-one] | 4400 nM
Nc1c(-c2cccc3[nH]ccc23)c2cc(Cl)ccc2[nH]c1=O [Compound A53, 3-Amino-6-chloro-4-(1H-indol-4-yl)-1H-quinolin-2-one] | 980 nM
Cc1cc(-c2c(N)c(=O)[nH]c3ccc(Cl)cc23)c2cn[nH]c2c1 [Compound A55, 3-Amino-6-chloro-4-(6-methyl-1H-indazol-4-yl)-1H-quinolin-2-one] | 480 nM
Nc1c(-c2cc(Cl)cc3[nH]ncc23)c2cc(Cl)ccc2[nH]c1=O [Compound A58, 3-Amino-6-chloro-4-(6-chloro-1H-indazol-4-yl)-1H-quinolin-2-one] | 360 nM
Cc1n[nH]c2cccc(-c3c(N)c(=O)[nH]c4ccc(Cl)cc34)c12 [Compound A62, 3-Amino-6-chloro-4-(3-methyl-1H-indazol-4-yl)-1H-quinolin-2-one] | 3900 nM
Cc1ccc2[nH]ncc2c1-c1c(N)c(=O)[nH]c2ccc(Cl)cc12 [Compound A63, 3-Amino-6-chloro-4-(5-methyl-1H-indazol-4-yl)-1H-quinolin-2-one] | 710 nM
Nc1c(-c2cccc(O)c2)c2cc(C3CC3)ccc2[nH]c1=O [Compound A65, 3-Amino-6-cyclopropyl-4-(3-hydroxyphenyl)-1H-quinolin-2-one] | 190 nM
Nc1c(-c2cccc(O)c2)c2ccccc2[nH]c1=O [Compound A66, 3-Amino-4-(3-hydroxyphenyl)-1H-quinolin-2-one] | 380 nM
Nc1c(-c2c(F)ccc3[nH]ncc23)c2cc(Cl)ccc2[nH]c1=O [Compound A67, 3-Amino-6-chloro-4-(5-fluoro-1H-indazol-4-yl)-1H-quinolin-2-one] | 130 nM

Compound | IC50
Nc1c(-c2cc[nH]c(=O)c2)c2cc(Cl)ccc2[nH]c1=O [Compound A68, 3-Amino-6-chloro-4-(2-oxo-1H-pyridin-4-yl)-1H-quinolin-2-one] | 8000 nM
Nc1nccc(-c2c(N)c(=O)[nH]c3ccc(Cl)cc23)n1 [Compound A69, 3-Amino-4-(2-aminopyrimidin-4-yl)-6-chloro-1H-quinolin-2-one] | 2500 nM
Nc1c(-c2ccccc2)c2ccccc2[nH]c1=O [Compound A70, 3-Amino-4-phenyl-1H-quinolin-2-one] | 6200 nM
Nc1c(N2CCCC(CO)C2)c2cc(Br)ccc2[nH]c1=O (stereo not shown) [Compound A71, 3-Amino-6-bromo-4-[3-(hydroxymethyl)piperidin-1-yl]-1H-quinolin-2-one 2,2,2-trifluoroacetate] | 1400 nM
Nc1c(-c2ccc(Cl)c3[nH]ncc23)c2cc(OCC3(F)CC3)c(F)cc2[nH]c1=O [Compound A72, 3-Amino-4-(7-chloro-1H-indazol-4-yl)-7-fluoro-6-[(1-fluorocyclopropyl)methoxy]-1H-quinolin-2-one] | 96 nM
COc1cccc(-c2c(N)c(=O)[nH]c3c2ccc2ccccc23)c1 [Compound B1, 3-Amino-4-(3-methoxyphenyl)-1H-benzo[h]quinolin-2-one] | 5600 nM
Nc1c(-c2cccc(O)c2)c2cc(Br)c3ccccc3c2[nH]c1=O [Compound B4, 3-Amino-6-bromo-4-(3-hydroxyphenyl)-1H-benzo[h]quinolin-2-one] | 27 nM
Nc1c(-c2cccc(O)c2)c2cc(-c3ccccc3)c3ccccc3c2[nH]c1=O [Compound B5, 3-Amino-4-(3-hydroxyphenyl)-6-phenyl-1H-benzo[h]quinolin-2-one] | 420 nM
Cc1cc2c(-c3cccc(O)c3)c(N)c(=O)[nH]c2c2ccccc12 [Compound B6, 3-Amino-4-(3-hydroxyphenyl)-6-methyl-1H-benzo[h]quinolin-2-one] | 7 nM
Nc1c(-c2cccc(O)c2)c2cc(Cl)c3ccccc3c2[nH]c1=O [Compound B8, 3-Amino-6-chloro-4-(3-hydroxyphenyl)-1H-benzo[h]quinolin-2-one] | 12 nM
Nc1c(-c2ccc(F)c3[nH]ncc23)c2cc(I)c3ccc(Cl)cc3c2[nH]c1=O [Compound B9, 3-Amino-9-chloro-4-(7-fluoro-1H-indazol-4-yl)-6-iodo-1H-benzo[h]quinolin-2-one] | 120 nM
Nc1c(-c2ccc(F)c3[nH]ncc23)c2cc(C3CC3)c3ccc(Cl)cc3c2[nH]c1=O [Compound B10, 3-Amino-9-chloro-6-cyclopropyl-4-(7-fluoro-1H-indazol-4-yl)-1H-benzo[h]quinolin-2-one] | 36 nM
Nc1c(-c2ccc(F)c3[nH]ncc23)c2ccc3ccc(Cl)cc3c2[nH]c1=O [Compound B11, 3-Amino-9-chloro-4-(7-fluoro-1H-indazol-4-yl)-1H-benzo[h]quinolin-2-one] | 30 nM
Cc1cc2c(-c3ccc(F)c4[nH]ncc34)c(N)c(=O)[nH]c2c2cc(Cl)ccc12 [Compound B12, 3-Amino-9-chloro-4-(7-fluoro-1H-indazol-4-yl)-6-methyl-1H-benzo[h]quinolin-2-one] | 20 nM
Nc1c(-c2ccc(F)c3[nH]ncc23)c2cc(I)c3cc(Cl)ccc3c2[nH]c1=O [Compound B13, 3-Amino-8-chloro-4-(7-fluoro-1H-indazol-4-yl)-6-iodo-1H-benzo[h]quinolin-2-one] | 85 nM
Nc1c(-c2ccc(F)c3[nH]ncc23)c2cc(C3CC3)c3cc(Cl)ccc3c2[nH]c1=O [Compound B14, 3-Amino-8-chloro-6-cyclopropyl-4-(7-fluoro-1H-indazol-4-yl)-1H-benzo[h]quinolin-2-one] | 18 nM
Cc1cc2c(-c3ccc(F)c4[nH]ncc34)c(N)c(=O)[nH]c2c2ccc(Cl)cc12 [Compound B15, 3-Amino-8-chloro-4-(7-fluoro-1H-indazol-4-yl)-6-methyl-1H-benzo[h]quinolin-2-one] | 8.6 nM
Nc1c(-c2ccc(F)c3[nH]ncc23)c2cc(Br)c3c(Cl)cccc3c2[nH]c1=O [Compound B16, 3-Amino-6-bromo-7-chloro-4-(7-fluoro-1H-indazol-4-yl)-1H-benzo[h]quinolin-2-one] | 46 nM
Nc1c(-c2ccc(F)c3[nH]ncc23)c2cc(C3CC3)c3c(Cl)cccc3c2[nH]c1=O [Compound B17, 3-Amino-7-chloro-6-cyclopropyl-4-(7-fluoro-1H-indazol-4-yl)-1H-benzo[h]quinolin-2-one] | 15 nM
Nc1c(-c2ccc(F)c3[nH]ncc23)c2ccc3c(Cl)cccc3c2[nH]c1=O [Compound B18, 3-Amino-7-chloro-4-(7-fluoro-1H-indazol-4-yl)-1H-benzo[h]quinolin-2-one] | 23 nM
Cc1cc2c(-c3ccc(F)c4[nH]ncc34)c(N)c(=O)[nH]c2c2cccc(Cl)c12 [Compound B19, 3-Amino-7-chloro-4-(7-fluoro-1H-indazol-4-yl)-6-methyl-1H-benzo[h]quinolin-2-one] | 22 nM
